This note sets out measurements from ChEMBL document CHEMBL5096149, “Recent Update on Targeting c-MYC G-Quadruplexes by Small Molecules for Anticancer Therapeutics” (J Med Chem, 2021).

The test system of data set [1] is Quadruplex DNA. The data set can be described thus: Binding affinity to c-MYC G-quadruplex (Mer22) DNA (unknown origin) assessed as first order binding constant by isothermal titration calorimetry method. It is filed as nucleic-acid assay. A general note: In ITC the heat of successive injections is recorded.
Data set [2] concerns Quadruplex DNA. The experiment in a line: Binding affinity to c-MYC G-quadruplex (Mer22) DNA (unknown origin) assessed as second order binding constant by isothermal titration calorimetry method. It is filed as nucleic-acid assay.
The test system of data set [3] is Quadruplex DNA. The data set can be described thus: Binding affinity to c-MYC G-quadruplex (Mer22) DNA (unknown origin) assessed as association rate constant by surface plasmon resonance analysis. It counts as nucleic-acid assay.
For data set [4], the system named is Quadruplex DNA. The data set can be described thus: Thermal stabilization of c-MYC G-quadruplex (Mer22) DNA (unknown origin) assessed as change in melting temperature at 1:3 ratio by UV-Vis spectroscopy. It is filed as nucleic-acid assay.
For data set [5], the system named is Quadruplex DNA. The experiment in a line: Thermal stabilization of c-MYC G-quadruplex (Mer22) DNA (unknown origin) assessed as change in melting temperature at 1:3 ratio by FRET melting assay. It counts as nucleic-acid assay.
The test system of data set [6] is Quadruplex DNA. The data set can be described thus: Binding affinity to c-MYC G-quadruplex DNA (unknown origin) assessed as association constant by fluorescence spectroscopy. It counts as nucleic-acid assay.
The test system of data set [7] is Quadruplex DNA. The data set can be described thus: Thermal stabilization of c-MYC G-quadruplex DNA (unknown origin) assessed as change in melting temperature at 1:5 ratio by FRET melting assay. It counts as nucleic-acid assay.
The test system of data set [8] is SMMC-7721. The data set can be described thus: Antitumor activity against human SMMC-7721 cells xenografted in mouse model assessed as tumor growth inhibition at 20 mg/kg,ip administrated for 3 weeks. It is filed as functional. The following applies: SMMC-7721, 504 h. Background: In xenograft studies the graft and the host belong to different species.
The subject of data set [9] is Quadruplex DNA. The experiment in a line: Binding affinity to c-MYC G-quadruplex DNA (unknown origin) assessed as first order binding constant by electrospray ionization mass spectrometry. It is filed as nucleic-acid assay.
The test system of data set [10] is Quadruplex DNA. The data set can be described thus: Binding affinity to c-MYC G-quadruplex DNA (unknown origin) assessed as second order binding constant by electrospray ionization mass spectrometry. It counts as nucleic-acid assay.
Data set [11] deals with Quadruplex DNA. The experiment in a line: Thermal stabilization of c-MYC G-quadruplex DNA (unknown origin) assessed as change in melting temperature at 1:2.5 ratio by FRET melting assay. It counts as nucleic-acid assay.
The subject of data set [12] is Quadruplex DNA. The experiment in a line: Thermal stabilization of c-MYC G-quadruplex DNA (unknown origin) assessed as change in melting temperature at 1:10 ratio by FRET melting assay. It is filed as nucleic-acid assay.
For data set [13], the system named is HCT-116. The data set can be described thus: Cytotoxicity against human HCT-116 cells assessed as reduction in cell viability incubated for 24 hrs by MTT assay. It counts as functional, cell-based. The conditions noted are these: HCT-116, 24 h. In general terms: Tetrazolium dyes change colour on reduction, which living cells bring about.
Data set [14] relates to HeLa. The data set can be described thus: Antiproliferative activity against human HeLa cells assessed as inhibition of cell growth by XTT assay. It counts as functional, cell-based.
For data set [15], the system named is A549. The data set can be described thus: Antiproliferative activity against human A549 cells assessed as inhibition of cell growth by XTT assay. It is filed as functional, cell-based.
Data set [16] in a line: Antiproliferative activity against human Kidney epithelial cells assessed as inhibition of cell growth by XTT assay. It is filed as toxicity, cell-based.
The subject of data set [17] is HeLa. The data set can be described thus: Antiproliferative activity against human HeLa cells assessed as inhibition of cell growth incubated for 24 hrs by XTT assay. It is filed as functional, cell-based.
The test system of data set [18] is HCT-116. The data set can be described thus: Antiproliferative activity against human HCT-116 cells assessed as inhibition of cell growth incubated for 24 hrs by XTT assay. It counts as functional, cell-based. The conditions noted are these: HCT-116, 24 h.
Data set [19] is described as follows: Antiproliferative activity against human Kidney epithelial cells assessed as inhibition of cell growth incubated for 24 hrs by XTT assay. It counts as toxicity, cell-based.
For data set [20], the system named is Quadruplex DNA. The experiment in a line: Binding affinity to c-MYC G-quadruplex DNA (unknown origin) assessed as association rate constant by isothermal titration calorimetry method. It is filed as nucleic-acid assay.
Data set [21] deals with Quadruplex DNA. The experiment in a line: Binding affinity to c-MYC G-quadruplex DNA (unknown origin) assessed as association rate constant by UV-Vis spectroscopy. It counts as nucleic-acid assay.
The test system of data set [22] is HepG2. The experiment in a line: Cytotoxicity against human HepG2 cells assessed as reduction in cell viability incubated for 24 hrs by MTT assay. The following applies: HepG2, 24 h. It counts as functional, cell-based.
Data set [23] relates to MCF7. The data set can be described thus: Cytotoxicity against human MCF7 cells assessed as reduction in cell viability incubated for 24 hrs by MTT assay. It is filed as functional, cell-based. The conditions noted are these: MCF7, 24 h.
The nature of data set [24]: Cytotoxicity against mouse C2C12 cells assessed as reduction in cell viability incubated for 24 hrs by MTT assay. It is filed as toxicity, cell-based.
Data set [25] deals with Quadruplex DNA. The experiment in a line: Binding affinity to c-MYC G-quadruplex DNA (unknown origin) assessed as association rate constant by fluorometric titration method. It is filed as nucleic-acid assay.
Data set [26] relates to Quadruplex DNA. The data set can be described thus: Thermal stabilization of c-MYC G-quadruplex DNA (unknown origin) assessed as change in melting temperature at 1:5 ratio by circular dichroism spectroscopy. It counts as nucleic-acid assay.
Data set [27] has as its system Quadruplex DNA. The experiment in a line: Binding affinity to c-MYC G-quadruplex DNA (unknown origin) assessed as first order binding constant by surface plasmon resonance analysis. It counts as nucleic-acid assay.
The test system of data set [28] is Quadruplex DNA. The data set can be described thus: Binding affinity to c-MYC G-quadruplex DNA (unknown origin) assessed as second order binding constant by surface plasmon resonance analysis. It counts as nucleic-acid assay.
The subject of data set [29] is Quadruplex DNA. The data set can be described thus: Thermal stabilization of c-MYC G-quadruplex (Pu47) DNA (unknown origin) assessed as change in melting temperature at 1:5 ratio by FRET melting assay. It is filed as nucleic-acid assay.
Data set [30] deals with Raji. The data set can be described thus: Cytotoxicity against human Raji cells assessed as reduction in cell viability by MTS assay. It is filed as functional, cell-based.
Data set [31] relates to CA46. The data set can be described thus: Cytotoxicity against human CA46 cells assessed as reduction in cell viability by MTS assay. It is filed as functional, cell-based.

For the compound `NCCC(=O)NCC1=C2CNC(=O)C3=CC(CNC(=O)CCN)=C(CNC(=O)c4cc(CNC(=O)CCN)c(o4)CNC(=O)C4=CC(CNC(=O)CCN)=C(CNC(=O)C(=C1)O2)O4)O3`, the K in data set [1] is 7.71 10^7/M; in data set [2] it was 5.2 10^5/M. Moreover, the Ka in [3] was 4.85 10^6/M. For the same compound, the ΔTm in data set [4] turned out to be 25 °C; in [5], 23 °C.
In the case of `C/C(=N/Nc1nc2ccccc2s1)c1ccc(-c2cccc(C(=O)NCCCN(C)C)c2)o1`, the Ka in data set [6] is 1.3 10^5/M. The ΔTm in data set [7] was determined as 15.3 °C.
As for `CN(C)CCCNCCC(=O)Nc1ccc(C(=O)Nc2cc(Cl)ccc2-c2nc(NCCCN(C)C)c3ccccc3n2)cc1`, the inhibition in vivo at 20 mg/kg in data set [8] amounted to 58.2%.
With `O=c1c2ccc3c4c(N5CCCCC5)cc5c(=O)n(CCN6CCCCC6)c(=O)c6cc7c(CCN8CCCCC8)cc8cc(c(=O)n1CCN1CCCCC1)c2c3c8c7c4c56`, the K in data set [9] is 1.2 10^6/M; in data set [10] it was 6.3 10^5/M. Also, the ΔTm in data set [11] amounted to 16.4 °C.
As for `CN(C)CCCNC(=O)c1ccc(-n2cc(-c3ccc4c(c3)c3ccccc3n4-c3ccc(C(=O)NCCCN(C)C)cc3)nn2)cc1`, in data set [6], the Ka was 5.9 10^6/M. The ΔTm in [12] was determined as 19.3 °C. Also, the concentration for half-maximal inhibition (IC50) in [13] turned out to be 2.1 µM.
Turning to `CN(C)CCCNC(=O)c1csc(NC(=O)c2csc(NC(=O)c3csc(N)n3)n2)n1`, the Ka in data set [6] is 4 10^6/M. The ΔTm in [7] was found to be 22 °C. For the same compound, the half-inhibitory concentration (IC50) in data set [14] was 3.8 µM; in [15], 3.2 µM; in [16], over 50 µM.
As to `CN(C)CCCNC(=O)c1ccc(-n2cc(-c3ccc4c(c3)c3ccccc3n4CCCN(C)C)nn2)cc1`, the Ka in [6] is 4.76 10^6/M. In addition, in [7], the ΔTm was found to be 15.8 °C. In addition, the values for the IC50 in [17] and in [18] were 3.4 µM and 3.2 µM, respectively. Further, the IC50 at 24 h in data set [19] was over 30 µM.
Take `C[n+]1cccc(-c2cc3c4cc(-c5ccc[n+](C)c5)c5nc(C(F)(F)C(F)(F)C(F)(F)F)nc6c(-c7ccc[n+](C)c7)cc(c7cc(-c8ccc[n+](C)c8)c8nc(C(F)(F)C(F)(F)C(F)(F)F)nc2c8c37)c4c56)c1`: the Ka in data set [6] was 2.31 10^7/M; in [20], 1.3 10^7/M; in [21] it was 2.38 10^7/M.
`CN(C)CCCNC(=O)c1ccc(-n2cc(-c3ccc4c(c3)c3cc(-c5cn(-c6ccc(C(=O)NCCCN(C)C)cc6)nn5)ccc3n4CCCN(C)C)nn2)cc1`: in data set [6], the Ka was 3.3 10^6/M. In addition, the ΔTm in data set [7] was found to be 22.7 °C. For the same compound, the results for the IC50 in [22], in [23] and in data set [13] were 4.3 µM, 6.8 µM and 8.2 µM, respectively. In data set [24], the half-inhibitory concentration (IC50) at 24 h is over 45 µM.
For the compound `c1cc2ccc3ccc4nc3c2nc1CNCCCCCCNCc1ccc2ccc3ccc(nc3c2n1)CNCCCCCCNC4`, the Ka in [25] was 1.3 10^5/M. In addition, the ΔTm in data set [12] is 17.2 °C; in data set [26], 15.1 °C.
On to `Cc1c2ccncc2c(C)c2c1[nH]c1ccc(OCCN(C)C)cc12`, for which the values for the K in data set [27] and in data set [28] were 1 10^7/M and 0.7 10^6/M, respectively. In data set [29], the ΔTm was 21 °C. Further, the IC50 in [30] amounted to 2.6 µM; in data set [31], 13 µM.

As usually defined, the ΔTm is the shift of the melting midpoint relative to a reference. Usually inhibition in vivo stands for how much of the control response was suppressed. As usually defined, the IC50 is the midpoint of a concentration-inhibition curve.
